Calls of active or inactive are those of the source. The rule behind the calls is not given here.
Experiments:
[1] = target: T1, Acyl-CoA desaturase 1 (Rattus norvegicus, UniProt P07308); assay: Inhibition of rat SCD by rat microsomal assay
T1 sequence (P07308 whole entry): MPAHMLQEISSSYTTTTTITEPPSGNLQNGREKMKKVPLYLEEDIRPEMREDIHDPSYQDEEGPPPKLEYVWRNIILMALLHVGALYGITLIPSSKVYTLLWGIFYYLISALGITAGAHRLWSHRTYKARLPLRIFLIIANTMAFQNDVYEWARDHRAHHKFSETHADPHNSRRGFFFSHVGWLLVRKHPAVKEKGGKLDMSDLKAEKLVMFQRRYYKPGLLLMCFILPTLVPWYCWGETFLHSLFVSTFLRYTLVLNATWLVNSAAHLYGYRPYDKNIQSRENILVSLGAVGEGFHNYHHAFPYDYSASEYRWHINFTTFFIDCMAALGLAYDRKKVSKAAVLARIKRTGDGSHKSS

[2] = tested on: Mus musculus; assay: Ratio of drug uptake in liver to harderian glands of C57BL/6 mouse at 10 mg/kg, po after 6 hrs; conditions: in vivo
[3] = Drug uptake in C57BL/6 mouse liver at 30 mg/kg, po after 3 hrs; assay type: ADME, organism-based, C57BL6; parameters: dose 30 mg/kg, route oral; conditions: read-out: Drug uptake
[4] = target: T2, Stearoyl-CoA desaturase (Homo sapiens, UniProt O00767); assay: Inhibition of SCD in human HepG2 cells assessed as conversion of [1-(14)C]-stearic acid to (14)C-oleic acid; assay type: cell-based
T2 sequence (O00767 whole entry): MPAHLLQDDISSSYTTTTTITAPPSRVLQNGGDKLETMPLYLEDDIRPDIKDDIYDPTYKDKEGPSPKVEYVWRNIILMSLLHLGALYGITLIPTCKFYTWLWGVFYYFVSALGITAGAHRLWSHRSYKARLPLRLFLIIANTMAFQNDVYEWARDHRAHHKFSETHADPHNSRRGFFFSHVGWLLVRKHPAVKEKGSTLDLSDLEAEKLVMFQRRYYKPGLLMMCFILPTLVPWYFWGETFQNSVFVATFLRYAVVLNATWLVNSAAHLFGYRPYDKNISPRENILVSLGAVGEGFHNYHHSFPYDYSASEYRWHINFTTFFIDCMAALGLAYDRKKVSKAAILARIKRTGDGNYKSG

[5] = tested on: Mus musculus; assay: Inhibition of SCD in C57BL/6 mouse liver assessed as conversion of [1-(14)C]-stearic acid to [1-(14)C]-oleic acid at 30 mg/kg, po after 3 hrs; assay type: functional
[6] = target: T1, Acyl-CoA desaturase 1; assay: Inhibition of SCD in rat hepatocytes assessed as conversion of [14C]-stearic acid to [14C]-oleic acid preincubated for 15 mins measured after 1 hrs by scintillation counting; assay type: cell-based, Hepatocyte
[7] = Inhibition of mouse SCD
[8] = Drug uptake in C57BL/6 mouse liver at 10 mg/kg, po after 6 hrs; assay type: ADME, organism-based, C57BL6; parameters: dose 10 mg/kg, route oral; conditions: read-out: Drug uptake
[9] = tested on: Nucleic Acid; assay: Ratio of drug uptake in liver to skin of C57BL/6 mouse at 10 mg/kg, po after 6 hrs; assay type: ADME, organism-based, C57BL6; parameters: dose 10 mg/kg, route oral; conditions: in vivo
[10] = Drug uptake in C57BL/6 mouse harderian glands at 10 mg/kg, po after 6 hrs; assay type: ADME, organism-based, C57BL6, Harderian gland; parameters: dose 10 mg/kg, route oral; conditions: read-out: Drug uptake
[11] = tested on: Mus musculus; assay: Inhibition of SCD in C57BL/6 mouse liver assessed as conversion of [1-(14)C]-stearic acid to [1-(14)C]-oleic acid at 10 mg/kg, po after 3 hrs; assay type: functional; conditions: C57BL/6, Liver
[12] = Drug uptake in C57BL/6 mouse plasma at 10 mg/kg, po after 6 hrs; assay type: ADME, organism-based, C57BL6; parameters: dose 10 mg/kg, route oral; conditions: read-out: Drug uptake
[13] = Drug uptake in C57BL/6 mouse skin at 10 mg/kg, po after 6 hrs; assay type: ADME, organism-based, C57BL6, Zone of skin; parameters: dose 10 mg/kg, route oral; conditions: read-out: Drug uptake

`O=C(O)Cn1nnc(-c2cnc(-c3cn(Cc4cc(Br)c(Br)c(Br)c4)nn3)cn2)n1` gave an IC50 [1] of 1250 nM.

In the case of `NC(=O)c1nnn(Cc2cc(Cl)c(Cl)c(Cl)c2)c1N`, the IC50 [1] is reported as 12 nM.

In the case of `O=C(O)CCc1nc(-c2cn(Cc3cc(Br)c(Br)c(Br)c3)nn2)no1`, the IC50 [1] is reported as 552 nM.

`O=C(O)CCCCCc1nc(-c2cn(Cc3cc(Br)c(Br)c(Br)c3)nn2)no1` showed an IC50 [1] of 8320 nM.

`O=C(O)CCCc1nc(-c2cn(Cc3cc(Br)c(Br)c(Br)c3)nn2)no1` showed an IC50 [1] of 216 nM.

With `O=C(O)CCCCc1nc(-c2cn(Cc3cc(Br)c(Br)c(Br)c3)nn2)no1` the IC50 [1] was 5250 nM.

Compound `O=C(O)Cn1nnc(-c2cc(-c3cn(Cc4cc(Br)c(Br)c(Br)c4)nn3)no2)n1` has a Ratio [2] of 100, a concentration at 3 h [3] of 8400 nM and an IC50 [1] of 21 nM. It also gave an IC50 [4] of 37700 nM, an inhibition in vivo at 30 mg/kg ([5]; C57BL/6, Liver) of 30% and an IC50 [6] of 212 nM. For the same compound, the IC50 [7] was 10 nM and the concentration at 6 h [8] was 1660 nM.

Work on `NC(=O)c1nnn(Cc2cc(Br)c(Br)c(Br)c2)c1N` yielded an IC50 [1] of 6 nM.

`NC(=O)c1cn(Cc2cc(Br)c(Br)c(Br)c2)nn1` gave a Ratio [2] of 0.4, a Ratio [9] of 3.6 and a concentration at 3 h [3] of 14000 nM. It also gave an IC50 [1] of 19 nM, a concentration at 6 h [10] of 6630 nM and an inhibition in vivo at 10 mg/kg [11] of 46%. The concentration at 6 h [12] was 740 nM, the concentration at 6 h [13] was 740 nM and the IC50 [4] was 760 nM. For the same compound, the IC50 [6] was 10100 nM and the concentration at 6 h [8] was 2690 nM.

For `O=C(O)Cn1nnc(-c2cnc(-c3cn(Cc4cc(Cl)c(Cl)c(Cl)c4)nn3)s2)n1`, the concentration at 3 h [3] was 4100 nM, the IC50 [1] was 49 nM and the IC50 [4] was > 100000 nM. The inhibition [5] was “inactive”, the IC50 [6] was 975 nM and the concentration at 6 h [8] was 330 nM.

For `O=C(O)Cn1nnc(-c2cn(CCc3cc(Br)c(Br)c(Br)c3)nn2)n1`, the IC50 [1] was 19900 nM.

For `O=C(O)Cn1nnc(-c2cc(-c3cn(Cc4cc(Cl)c(Cl)c(Cl)c4)nn3)ccn2)n1`, the IC50 [1] was 719 nM.

`O=C(O)Cn1nnc(-c2cn(CCCc3cc(Br)c(Br)c(Br)c3)nn2)n1` showed an IC50 [1] of 911 nM.

For `O=C(O)Cn1nnc(-c2cn(Cc3cc(Br)c(Br)c(Br)c3)nn2)n1`, the IC50 [1] was > 20000 nM.

`O=C(O)Cn1nnc(-c2cncc(-c3cn(Cc4cc(Br)c(Br)c(Br)c4)nn3)c2)n1` showed a concentration at 3 h [3] of 900 nM, an IC50 [1] of 56 nM and an IC50 [4] of 6310 nM. The inhibition [5] was “inactive”, the IC50 [6] was 694 nM and the concentration at 6 h [8] was 470 nM.

With `O=C(O)Cn1nnc(-c2ccnc(-c3cn(Cc4cc(Cl)c(Cl)c(Cl)c4)nn3)c2)n1` the IC50 [1] was 1310 nM.

In the case of `O=C(O)Cn1nnc(-c2cnc(-c3cn(Cc4cc(Cl)c(Cl)c(Cl)c4)nn3)nc2)n1`, the IC50 [1] is reported as 343 nM.

Work on `O=C(O)Cn1nnc(-c2ccc(-c3cn(Cc4cc(Cl)c(Cl)c(Cl)c4)nn3)nn2)n1` yielded an IC50 [1] of 1810 nM.
